Assay results reported in US20240382483A1, “HETEROCYCLIC EGFR INHIBITORS FOR USE IN THE TREATMENT OF CANCER” (Blueprint Medicines Corporation, priority 2021, published 2024).
Structures can show the parent of a compound that is named as a salt.

How the values were obtained:
[1] = molecular target: T1, EGFR (L858R T790M C797S) (Homo sapiens, UniProt P00533, C797S/L858R/T790M); assay: Biochemical EGFR inhibition assay (Caliper mobility shift), EGFR LRTMCS; conditions: LRTMCS (PH) IC50 (nM) @ 1 mM ATP (Num), EGFR LRTMCS mutant
T1 construct: purchased SignalChem E10-122VG
Summary of the method: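 Caliper mobility shift read-out: product and substrate peptides separated by electrophoresis and quantified. Reactions at 25° C. taken to 10–20% peptide phosphorylation, quenched with 35 mM EDTA. Apparent IC50 from percent activity vs log [compound].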

[2] = molecular target: T2, intracellular phosphorylation of EGFR in NCI-H1975 cell line that harbors the EGFR L858R T790M mutations (Homo sapiens, UniProt P00533, L858R/T790M); assay: NCI-H1975 pEGFR AlphaLISA assay; type: cell-based; conditions: NCI-H1975 cells (EGFR L858R T790M), p-EGFR (Tyr1068), 4-5 hours incubation; read-out: Ext pEGFR H1975 GMean IC50 (nM) Protocol: @Pharmaron AlphaLISA (Num)
T2 construct: NCI-H1975 cell line that harbors the EGFR L858R T790M mutations (ATCC, CRL-5908); host or cells: NCI-H1975
Description: On the next day, the test compounds and DMSO control were added into H1975 cell plate followed by incubation at 37C/5% CO2 for 4-5 hours. […] Then 5 μL of a donor bead mix was added to each well followed by overnight incubation at room temperature in dark. On the next day, the plate was read at a compatible plate reader to obtain pEGFR signal. Percent of pEGFR inhibition was plotted against log concentration of compounds to generate IC50 values.

T2 sequence (P00533 25-1210 T790M/L858R): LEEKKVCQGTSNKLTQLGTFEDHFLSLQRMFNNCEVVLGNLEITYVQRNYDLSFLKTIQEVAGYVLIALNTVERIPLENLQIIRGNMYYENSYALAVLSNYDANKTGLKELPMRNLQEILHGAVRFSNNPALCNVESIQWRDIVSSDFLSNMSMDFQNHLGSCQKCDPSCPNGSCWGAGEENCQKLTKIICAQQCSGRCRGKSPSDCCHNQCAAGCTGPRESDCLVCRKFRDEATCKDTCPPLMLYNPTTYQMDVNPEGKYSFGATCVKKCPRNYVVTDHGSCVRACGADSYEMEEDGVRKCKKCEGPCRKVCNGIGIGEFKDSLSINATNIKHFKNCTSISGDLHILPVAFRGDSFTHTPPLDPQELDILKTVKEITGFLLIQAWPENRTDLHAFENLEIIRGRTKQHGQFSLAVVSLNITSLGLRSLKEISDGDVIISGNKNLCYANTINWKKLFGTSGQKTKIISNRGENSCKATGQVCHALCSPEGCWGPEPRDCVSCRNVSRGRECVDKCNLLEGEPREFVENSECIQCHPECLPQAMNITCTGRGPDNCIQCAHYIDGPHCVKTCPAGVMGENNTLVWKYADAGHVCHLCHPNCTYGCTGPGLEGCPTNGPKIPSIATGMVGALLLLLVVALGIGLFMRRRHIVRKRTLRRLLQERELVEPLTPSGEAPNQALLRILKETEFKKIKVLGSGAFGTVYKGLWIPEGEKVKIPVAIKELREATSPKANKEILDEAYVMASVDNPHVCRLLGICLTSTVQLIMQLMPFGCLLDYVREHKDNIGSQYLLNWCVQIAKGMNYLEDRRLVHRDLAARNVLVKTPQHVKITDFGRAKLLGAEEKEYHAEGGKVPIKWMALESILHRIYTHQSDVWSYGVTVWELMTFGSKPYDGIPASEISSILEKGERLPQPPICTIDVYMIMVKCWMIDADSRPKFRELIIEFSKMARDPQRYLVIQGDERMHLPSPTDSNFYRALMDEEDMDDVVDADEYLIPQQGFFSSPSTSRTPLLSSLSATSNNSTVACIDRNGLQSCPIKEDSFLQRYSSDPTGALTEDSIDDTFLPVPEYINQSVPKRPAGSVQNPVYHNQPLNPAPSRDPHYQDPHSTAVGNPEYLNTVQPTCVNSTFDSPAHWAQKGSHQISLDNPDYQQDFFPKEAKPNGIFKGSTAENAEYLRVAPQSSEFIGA
T1 sequence (P00533 25-1210 T790M/C797S/L858R): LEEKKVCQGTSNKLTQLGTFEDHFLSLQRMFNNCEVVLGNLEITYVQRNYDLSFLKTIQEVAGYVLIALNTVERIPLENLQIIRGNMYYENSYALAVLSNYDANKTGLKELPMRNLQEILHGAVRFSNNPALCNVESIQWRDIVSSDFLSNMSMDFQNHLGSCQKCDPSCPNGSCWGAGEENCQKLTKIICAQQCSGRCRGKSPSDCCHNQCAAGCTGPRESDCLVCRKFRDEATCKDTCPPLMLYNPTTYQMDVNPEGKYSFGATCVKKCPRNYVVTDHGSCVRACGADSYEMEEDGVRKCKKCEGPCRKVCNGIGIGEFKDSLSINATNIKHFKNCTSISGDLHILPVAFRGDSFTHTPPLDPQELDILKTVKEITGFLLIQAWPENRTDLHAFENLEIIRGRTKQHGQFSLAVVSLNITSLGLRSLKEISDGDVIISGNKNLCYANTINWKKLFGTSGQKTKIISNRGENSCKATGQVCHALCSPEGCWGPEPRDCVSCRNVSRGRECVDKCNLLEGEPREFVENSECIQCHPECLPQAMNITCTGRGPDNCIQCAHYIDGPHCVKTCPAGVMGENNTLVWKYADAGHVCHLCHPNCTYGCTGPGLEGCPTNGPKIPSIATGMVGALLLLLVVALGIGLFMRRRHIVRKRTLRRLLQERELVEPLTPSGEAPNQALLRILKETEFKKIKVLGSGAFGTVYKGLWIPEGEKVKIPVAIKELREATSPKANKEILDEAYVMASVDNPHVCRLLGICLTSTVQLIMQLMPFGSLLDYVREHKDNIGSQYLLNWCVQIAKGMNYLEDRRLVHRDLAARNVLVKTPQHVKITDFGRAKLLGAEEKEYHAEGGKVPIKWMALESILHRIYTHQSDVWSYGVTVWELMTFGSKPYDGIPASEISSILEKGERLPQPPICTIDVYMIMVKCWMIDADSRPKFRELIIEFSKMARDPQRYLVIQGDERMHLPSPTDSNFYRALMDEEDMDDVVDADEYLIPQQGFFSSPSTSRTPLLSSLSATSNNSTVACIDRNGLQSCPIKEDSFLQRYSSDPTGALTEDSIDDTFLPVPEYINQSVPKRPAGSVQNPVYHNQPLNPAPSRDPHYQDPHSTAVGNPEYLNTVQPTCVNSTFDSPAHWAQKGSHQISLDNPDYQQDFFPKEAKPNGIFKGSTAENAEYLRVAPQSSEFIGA

SMILES	IC50 [1] [nM]	IC50 [2] [nM]
CC(C)c1cnc(N2C[C@H](O)[C@H]2C)c2cnc(Nc3ccnc(N4CC[C@@H](O)C(C)(C)C4)n3)cc12 (single isomer, unassigned) [Example 168, (R)-1-(4-((8-((2R,3S)-3-hydroxy-2-methylazetidin-1-yl)-5-isopropyl-2,7-naphthyridin-3-yl)amino)pyrimidin-2-yl)-3,3-dimethylpiperidin-4-ol or (S)-1-(4-((8-((2R,3S)-3-hydroxy-2-methylazetidin-1-yl)-5-isopropyl-2,7-naphthyridin-3-yl)amino)pyrimidin-2-yl)-3,3-dimethylpiperidin-4-ol]	< 15	30 to 50
CC(C)c1cnc(N2C[C@H](O)[C@H]2C)c2cnc(Nc3ccnc(N4CC[C@@](C)(O)[C@@H](F)C4)n3)cc12 (single isomer, unassigned) [Example 172, (3S,4R)-3-fluoro-1-(4-((8-((2R,3S)-3-hydroxy-2-methylazetidin-1-yl)-5-isopropyl-2,7-naphthyridin-3-yl)amino)pyrimidin-2-yl)-4-methylpiperidin-4-ol or (3R,4S)-3-fluoro-1-(4-((8-((2R,3S)-3-hydroxy-2-methylazetidin-1-yl)-5-isopropyl-2,7-naphthyridin-3-yl)amino)pyrimidin-2-yl)-4-methylpiperidin-4-ol]	15 to 20	> 50
CC(C)c1cnc(N2C[C@H](O)[C@H]2C)c2cnc(Nc3ccnc(N4CC[C@@H](O)[C@@H](F)C4)n3)cc12 [Example 154, (3S,4R)-3-fluoro-1-(4-((8-((2R,3S)-3-hydroxy-2-methylazetidin-1-yl)-5-isopropyl-2,7-naphthyridin-3-yl)amino)pyrimidin-2-yl)piperidin-4-ol]	< 15	10 to 20
CC(C)c1ccc(N2CC(c3nncn3C)C2)c2cnc(Nc3ccnc(N4CC[C@@H](O)[C@@](C)(F)C4)n3)cc12 [Example 112, (3S,4R)-3-fluoro-1-(4-((5-isopropyl-8-(3-(4-methyl-4H-1,2,4-triazol-3-yl)azetidin-1-yl)isoquinolin-3-yl)amino)pyrimidin-2-yl)-3-methylpiperidin-4-ol]	< 15	10 to 20
CC(=O)N1CC(c2ccc(C(C)C)c3cc(Nc4ccnc(N5CC[C@@H](O)[C@@](C)(F)C5)n4)ncc23)C1 [Example 4, 1-(3-(3-((2-((3S,4R)-3-fluoro-4-hydroxy-3-methylpiperidin-1-yl)pyrimidin-4-yl)amino)-5-isopropylisoquinolin-8-yl)azetidin-1-yl)ethan-1-one]	< 15	20 to 30
CC(C)c1cnc(-c2ncn(C)n2)c2cnc(Nc3ccnc(N4CC[C@@H](O)[C@@](C)(F)C4)n3)cc12 [Example 15, (3S,4R)-3-fluoro-1-(4-((5-isopropyl-8-(1-methyl-1H-1,2,4-triazol-3-yl)-2,7-naphthyridin-3-yl)amino)pyrimidin-2-yl)-3-methylpiperidin-4-ol]	< 15	> 50
[2H]C([2H])([2H])O[C@@H]1CCN(c2nccc(Nc3cc4c(C(C)C)cnc(N5C[C@H](O)[C@H]5C)c4cn3)n2)C[C@@H]1F [Example 139, (2R,3S)-1-(6-((2-((3S,4R)-3-fluoro-4-(methoxy-d3)piperidin-1-yl)pyrimidin-4-yl)amino)-4-isopropyl-2,7-naphthyridin-1-yl)-2-methylazetidin-3-ol]	< 15	< 10
CC(C)c1cnc(N2CC(n3ccnc3)C2)c2cnc(Nc3ccnc(N4CC[C@@H](O)[C@@](C)(F)C4)n3)cc12 [Example 219, (3S,4R)-1-(4-((8-(3-(1H-imidazol-1-yl)azetidin-1-yl)-5-isopropyl-2,7-naphthyridin-3-yl)amino)pyrimidin-2-yl)-3-fluoro-3-methylpiperidin-4-ol]	20 to 30	> 50
C[C@H]1CCN1c1ncc(CC2(C)COC2)c2cc(Nc3ccnc(N4CC[C@@H](O)[C@@](C)(F)C4)n3)ncc12 (single isomer, unassigned) [Example 156, (3S,4R)-3-fluoro-3-methyl-1-(4-((8-((S)-2-methylazetidin-1-yl)-5-((3-methyloxetan-3-yl)methyl)-2,7-naphthyridin-3-yl)amino)pyrimidin-2-yl)piperidin-4-ol or (3S,4R)-3-fluoro-3-methyl-1-(4-((8-((R)-2-methylazetidin-1-yl)-5-((3-methyloxetan-3-yl)methyl)-2,7-naphthyridin-3-yl)amino)pyrimidin-2-yl)piperidin-4-ol]	20 to 30	> 50
CO[C@@H]1CCN(c2nccc(Nc3cc4c(C(C)C)ncc(N5C[C@H](O)[C@H]5C)c4cn3)n2)C[C@@H]1O (single isomer, unassigned) [Example 119, (3S,4R)-1-(4-((8-((2R,3S)-3-hydroxy-2-methylazetidin-1-yl)-5-isopropyl-2,6-naphthyridin-3-yl)amino)pyrimidin-2-yl)-4-methoxypiperidin-3-ol or (3R,4S)-1-(4-((8-((2R,3S)-3-hydroxy-2-methylazetidin-1-yl)-5-isopropyl-2,6-naphthyridin-3-yl)amino)pyrimidin-2-yl)-4-methoxypiperidin-3-ol]	20 to 30	> 50
CC(=O)N1CC(Cc2ccc(C(C)C)c3cc(Nc4ccnc(N5CC[C@@H](O)[C@@](C)(F)C5)n4)ncc23)C1 [Example 2, 1-(3-((3-((2-((3S,4R)-3-fluoro-4-hydroxy-3-methylpiperidin-1-yl)pyrimidin-4-yl)amino)-5-isopropylisoquinolin-8-yl)methyl)azetidin-1-yl)ethan-1-one]	< 15	> 50
CC(C)c1cnc(N2C[C@H](O)[C@H]2C)c2cnc(Nc3ccnc(N4C[C@H](F)[C@H](O)[C@@](C)(F)C4)n3)cc12 (single isomer, unassigned) [Example 135, (3S,4S,5S)-3,5-difluoro-1-(4-((8-((2R,3S)-3-hydroxy-2-methylazetidin-1-yl)-5-isopropyl-2,7-naphthyridin-3-yl)amino)pyrimidin-2-yl)-3-methylpiperidin-4-ol or (3R,4R,5R)-3,5-difluoro-1-(4-((8-((2R,3S)-3-hydroxy-2-methylazetidin-1-yl)-5-isopropyl-2,7-naphthyridin-3-yl)amino)pyrimidin-2-yl)-3-methylpiperidin-4-ol]	20 to 30	> 50
CO[C@H]1CN(c2ncc([C@@H](C)CO)c3cc(Nc4ccnc(N5CC[C@@H](O)[C@@](C)(F)C5)n4)ncc23)[C@@H]1C (single isomer, unassigned) [Example 211, (3S,4R)-3-fluoro-1-(4-((5-((R)-1-hydroxypropan-2-yl)-8-((2R,3S)-3-methoxy-2-methylazetidin-1-yl)-2,7-naphthyridin-3-yl)amino)pyrimidin-2-yl)-3-methylpiperidin-4-ol or (3S,4R)-3-fluoro-1-(4-((5-((S)-1-hydroxypropan-2-yl)-8-((2R,3S)-3-methoxy-2-methylazetidin-1-yl)-2,7-naphthyridin-3-yl)amino)pyrimidin-2-yl)-3-methylpiperidin-4-ol]	30 to 100	> 50
CC(C)c1cnc(-c2cnn(C)c2CN(C)C)c2cnc(Nc3ccnc(N4CC[C@@H](O)[C@@](C)(F)C4)n3)cc12 [Example 13, (3S,4R)-1-(4-((8-(5-((dimethylamino)methyl)-1-methyl-1H-pyrazol-4-yl)-5-isopropyl-2,7-naphthyridin-3-yl)amino)pyrimidin-2-yl)-3-fluoro-3-methylpiperidin-4-ol trifluoroacetate]	30 to 100	> 50
CC(C)c1cnc(N2CCC23CNC3)c2cnc(Nc3ccnc(N4CC[C@@]5(CCO5)C(F)(F)C4)n3)cc12 (single isomer, unassigned) [Example 191, (R)—N-(2-(5,5-difluoro-1-oxa-7-azaspiro[3.5]nonan-7-yl)pyrimidin-4-yl)-5-isopropyl-8-(1,6-diazaspiro[3.3]heptan-1-yl)-2,7-naphthyridin-3-amine or (S)—N-(2-(5,5-difluoro-1-oxa-7-azaspiro[3.5]nonan-7-yl)pyrimidin-4-yl)-5-isopropyl-8-(1,6-diazaspiro[3.3]heptan-1-yl)-2,7-naphthyridin-3-amine]	< 15	> 50
C[C@H](CO)c1cnc(N2CC[C@H]2C)c2cnc(Nc3ccnc(N4C[C@@H](F)[C@@H](O)C(C)(C)C4)n3)cc12 (single isomer, unassigned) [Example 188]	< 15	20 to 30
C[C@@H]1[C@H](F)CN1c1ncc([C@@H](C)CO)c2cc(Nc3ccnc(N4CC[C@@H](O)[C@@](C)(F)C4)n3)ncc12 (single isomer, unassigned) [Example 210, (3S,4R)-3-fluoro-1-(4-((8-((2R,3R)-3-fluoro-2-methylazetidin-1-yl)-5-((R)-1-hydroxypropan-2-yl)-2,7-naphthyridin-3-yl)amino)pyrimidin-2-yl)-3-methylpiperidin-4-ol or (3S,4R)-3-fluoro-1-(4-((8-((2R,3R)-3-fluoro-2-methylazetidin-1-yl)-5-((S)-1-hydroxypropan-2-yl)-2,7-naphthyridin-3-yl)amino)pyrimidin-2-yl)-3-methylpiperidin-4-ol]	< 15	10 to 20
